Converted amounts (≈) assume the structure as drawn.
Key:
Assay in all cases: in vitro antibacterial evaluation, MIC by broth dilution
Type in all cases: cell-based
Enterococcus sp. = conditions: broth dilution, 18 hours at 35° C.
Method: (§1) Methods for in vitro Antibacterial Evaluation (Table 1)
(§2) The minimum inhibitory concentration (MIC), the lowest concentration of the antibiotic which inhibits growth of the test organism, is determined by the broth dilution method using Muller-Hinton II […] (Baltimore Biological Laboratories) following the recommendations of the National Committee for Clinical Laboratory Standards [Methods for dilution antimicrobial susceptibility tests for bacteria that grow aerobically, approved standard M7-A2, National Committee for Clinical Laboratory Standards, Villanova, Pa.].
(§3) An inoculum level of 5×10^5 CFU/mL, and a range of antibiotic concentrations (64-0.06 μg/mL) is used. […] The test organisms include a spectrum of Gram-positive bacteria comprised of Staphylococcus sp., Streptococcus sp. and Enterococcus sp. These organisms include recent clinical isolates that are resistant to methicillin, penicillin and/or vancomycin.

Staphylococcus sp. = conditions: broth dilution, 18 hours at 35° C.
Method: as §1, §2, §3

Streptococcus sp. = conditions: broth dilution, 18 hours at 35° C.
Method: as §1, §2, §3

Escherichia coli = conditions: 18 hours at 35° C.
How it was run: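 MIC is the lowest antibiotic concentration (tested 64-0.06 μg/mL) preventing growth of a 5×10^5 CFU/mL inoculum. Determined by broth dilution in Mueller-Hinton II medium following NCCLS standard M7-A2.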

In the case of `CC(C)=CCCC(C)=CCN=C1NCC(C(O)C2NC(=O)C(C(O)C3CNC(=N)N3)NC(=O)C(Cc3ccc(OC4OC(CO)C(OC5OC6COC7(OC6C(O)C5O)C5CC6CC(C5)CC7C6)C(O)C4O)cc3)NC(=O)C(C(C)c3ccccc3)NC(=O)CNC(=O)C(CO)NC2=O)N1C1OC(CO)C(O)C(O)C1O` (stereo not drawn) [Example 82], the “MIC Enterococcus avium (GC 4558)” value (Enterococcus sp.; Enterococcus avium (GC 4558)) is reported as 4 mg/L (≈ 2.56 µM), the “MIC Enterococcus faecalis (ATCC 29212)” value (Enterococcus sp.; Enterococcus faecalis (ATCC 29212)) is reported as 16 mg/L (≈ 10.2 µM) and the “MIC Enterococcus faecalis (GC 4552)” value (Enterococcus sp.; Enterococcus faecalis (GC 4552)) is reported as 16 mg/L (≈ 10.2 µM). The “MIC Enterococcus faecalis (GC 4553)” value (Enterococcus sp.; Enterococcus faecalis (GC 4553)) was 8 mg/L (≈ 5.12 µM), the “MIC Enterococcus faecalis (GC 4554)” value (Enterococcus sp.; Enterococcus faecalis (GC 4554)) was 32 mg/L (≈ 20.5 µM) and the “MIC Enterococcus faecalis (GC 6189)” value (Enterococcus sp.; Enterococcus faecalis (GC 6189)) was 16 mg/L (≈ 10.2 µM). For the same molecule, the “MIC Enterococcus faecium (GC 2243)” value (Enterococcus sp.; Enterococcus faecium (GC 2243)) was 8 mg/L (≈ 5.12 µM), the “MIC Enterococcus faecium (GC 4556)” value (Enterococcus sp.; Enterococcus faecium (GC 4556)) was 16 mg/L (≈ 10.2 µM) and the “MIC Enterococcus faecium (GC 4557)” value (Enterococcus sp.; Enterococcus faecium (GC 4557)) was 2 mg/L (≈ 1.28 µM). The “MIC Enterococcus avium (GC 4558)” value (Enterococcus sp.) was 4 mg/L (≈ 2.56 µM), the “MIC Enterococcus faecalis (ATCC 29212)” value (Enterococcus sp.) was 16 mg/L (≈ 10.2 µM) and the “MIC Enterococcus faecalis (GC 2242)” value (Enterococcus sp.) was 16 mg/L (≈ 10.2 µM). For the same molecule, the “MIC Enterococcus faecalis (GC 2691)” value (Enterococcus sp.) was 16 mg/L (≈ 10.2 µM), the “MIC Enterococcus faecalis (GC 3059)” value (Enterococcus sp.) was 16 mg/L (≈ 10.2 µM) and the “MIC Enterococcus faecalis (GC 4552)” value (Enterococcus sp.) was 16 mg/L (≈ 10.2 µM). For the same molecule, the “MIC Enterococcus faecalis (GC 4553)” value (Enterococcus sp.) was 8 mg/L (≈ 5.12 µM), the “MIC Enterococcus faecalis (GC 4554)” value (Enterococcus sp.) was 32 mg/L (≈ 20.5 µM) and the “MIC Enterococcus faecalis (GC 6189)” value (Enterococcus sp.) was 16 mg/L (≈ 10.2 µM). The “MIC Enterococcus faecium (GC 2243)” value (Enterococcus sp.) was 8 mg/L (≈ 5.12 µM), the “MIC Enterococcus faecium (GC 4556)” value (Enterococcus sp.) was 16 mg/L (≈ 10.2 µM) and the “MIC Enterococcus faecium (GC 4557)” value (Enterococcus sp.) was 2 mg/L (≈ 1.28 µM). For the same molecule, the “MIC Enterococcus faecalis (GC 2242)” value (Enterococcus sp.; strain GC 2242) was 16 mg/L (≈ 10.2 µM), the “MIC Enterococcus faecalis (GC 2691)” value (Enterococcus sp.; strain GC 2691) was 16 mg/L (≈ 10.2 µM) and the “MIC Enterococcus faecalis (GC 3059)” value (Enterococcus sp.; strain GC 3059) was 16 mg/L (≈ 10.2 µM). For the same molecule, the “MIC Staphylococcus aureus (ATCC 29213)” value (Staphylococcus sp.; strain ATCC 29213) was 8 mg/L (≈ 5.12 µM), the “MIC Staphylococcus aureus (GC 1131)” value (Staphylococcus sp.; strain GC 1131) was 16 mg/L (≈ 10.2 µM) and the “MIC Staphylococcus aureus (GC 3051)” value (Staphylococcus sp.; strain GC 3051) was 8 mg/L (≈ 5.12 µM). The “MIC Staphylococcus aureus (GC 3053)” value (Staphylococcus sp.; strain GC 3053) was 16 mg/L (≈ 10.2 µM), the “MIC Staphylococcus aureus (GC 4541)” value (Staphylococcus sp.; strain GC 4541) was 8 mg/L (≈ 5.12 µM) and the “MIC Staphylococcus aureus (GC 4542)” value (Staphylococcus sp.; strain GC 4542) was 16 mg/L (≈ 10.2 µM). For the same molecule, the “MIC Staphylococcus aureus-SMITH (GC 4543)” value (Staphylococcus sp.; strain GC 4543) was 8 mg/L (≈ 5.12 µM), the “MIC Staphylococcus aureus (GC 4544)” value (Staphylococcus sp.; strain GC 4544) was 16 mg/L (≈ 10.2 µM) and the “MIC Staphylococcus aureus (GC 4545)” value (Staphylococcus sp.; strain GC 4545) was 8 mg/L (≈ 5.12 µM). For the same molecule, the “MIC Staphylococcus haemolyticus (GC 4546)” value (Staphylococcus sp.; strain GC 4546) was 4 mg/L (≈ 2.56 µM), the “MIC Coagulase Negative Staphylococcus (GC 4547)” value (Staphylococcus sp.; strain GC 4547) was 4 mg/L (≈ 2.56 µM) and the “MIC Coagulase Negative Staphylococcus (GC 4548)” value (Staphylococcus sp.; strain GC 4548) was 4 mg/L (≈ 2.56 µM). The “MIC Coagulase Negative Staphylococcus (GC 4549)” value (Staphylococcus sp.; strain GC 4549) was 4 mg/L (≈ 2.56 µM), the “MIC Coagulase Negative Staphylococcus (GC 4551)” value (Staphylococcus sp.; strain GC 4551) was 8 mg/L (≈ 5.12 µM) and the “MIC Streptococcus agalactiae (GC 4564)” value (Streptococcus sp.) was 0.5 mg/L (≈ 0.32 µM). For the same molecule, the “MIC Streptococcus pneumoniae (ATCC 6301)” value (Streptococcus sp.) was 2 mg/L (≈ 1.28 µM), the “MIC Streptococcus pneumoniae (GC 1894)” value (Streptococcus sp.) was 0.25 mg/L (≈ 0.16 µM) and the “MIC Streptococcus pneumoniae (GC 4565)” value (Streptococcus sp.) was 2 mg/L (≈ 1.28 µM). For the same molecule, the “MIC Streptococcus pyogenes (GC 4563)” value (Streptococcus sp.) was 1 mg/L (≈ 0.64 µM), the “MIC Streptococcus pneumoniae (ATCC 6301)” value (Streptococcus sp.; strain ATCC 6301) was 2 mg/L (≈ 1.28 µM) and the “MIC Streptococcus pneumoniae (GC 1894)” value (Streptococcus sp.; strain GC 1894) was 0.25 mg/L (≈ 0.16 µM). For the same molecule, the “MIC Streptococcus pyogenes (GC 4563)” value (Streptococcus sp.; strain GC 4563) was 1 mg/L (≈ 0.64 µM), the “MIC Streptococcus agalactiae (GC 4564)” value (Streptococcus sp.; strain GC 4564) was 0.5 mg/L (≈ 0.32 µM) and the “MIC Streptococcus pneumoniae (GC 4565)” value (Streptococcus sp.; strain GC 4565) was 2 mg/L (≈ 1.28 µM). The “MIC Escherichia coli (ATCC 25922)” value (Escherichia coli) was greater than 128 mg/L, the “MIC Escherichia coli (GC 4559)” value (Escherichia coli) was greater than 128 mg/L and the “MIC Escherichia coli (GC 4560)” value (Escherichia coli) was 4 mg/L (≈ 2.56 µM).
